Drawing on US10941137B2, “Difluoromethyl-phenyl triazoles” (Boehringer Ingelheim International GmbH, priority 2018, dated 2021), this text covers Assay B: GABAA α5β3γ2 Emax vs GABA, EC50 and half-life for 28 molecules.

In one series the target is T1, α5β2γ2 GABAA receptor (Homo sapiens, UniProt P18507+P31644).
T1 sequence (P31644 32-462): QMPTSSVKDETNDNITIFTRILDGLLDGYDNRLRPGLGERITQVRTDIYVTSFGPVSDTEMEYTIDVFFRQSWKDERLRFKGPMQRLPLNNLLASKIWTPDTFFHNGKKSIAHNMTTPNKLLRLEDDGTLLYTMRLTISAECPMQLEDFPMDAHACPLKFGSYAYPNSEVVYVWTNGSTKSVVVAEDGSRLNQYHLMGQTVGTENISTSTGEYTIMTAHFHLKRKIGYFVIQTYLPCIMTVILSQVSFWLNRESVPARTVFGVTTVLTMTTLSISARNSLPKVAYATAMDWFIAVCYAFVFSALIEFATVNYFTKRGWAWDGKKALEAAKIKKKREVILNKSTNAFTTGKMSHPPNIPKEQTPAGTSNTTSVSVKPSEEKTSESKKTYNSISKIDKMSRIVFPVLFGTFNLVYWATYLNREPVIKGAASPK
T1 sequence (P18507 40-376 limits assumed): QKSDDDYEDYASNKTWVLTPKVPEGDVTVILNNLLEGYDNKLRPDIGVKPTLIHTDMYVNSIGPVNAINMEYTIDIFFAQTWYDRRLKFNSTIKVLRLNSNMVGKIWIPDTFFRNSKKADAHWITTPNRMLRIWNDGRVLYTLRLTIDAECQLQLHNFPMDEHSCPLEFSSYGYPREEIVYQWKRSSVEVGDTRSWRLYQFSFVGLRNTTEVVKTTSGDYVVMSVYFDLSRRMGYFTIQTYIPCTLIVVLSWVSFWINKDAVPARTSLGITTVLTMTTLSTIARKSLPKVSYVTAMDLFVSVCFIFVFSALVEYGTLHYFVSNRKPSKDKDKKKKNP
The series can be described thus: Assay B: modulation of α5β2γ2 GABAA receptor, two-electrode voltage clamp in oocytes. It counts as cell-based. The conditions noted are these: for pEC50: oocytes, TEVC, co-application with GABA 0.5 μM (EC5-20), read-out: Assay B: GABAA α5β3γ2 EC50. As to the method: Assay B: In vitro evaluation of modulation of α5β2γ2 GABAA receptor.
Modulatory efficacy of compounds of formula (I) is determined electrophysiological recordings in oocytes using the two-electrode voltage clamp (TEVC) technique. Oocytes are injected with cRNA for human GABAA receptor subunits α5, β2 and γ2 in a 3:1:3 ratio and modulatory efficacy is evaluated by co-applications with a submaximal EC5-20 GABA concentration (0.5 μM) termed GABA control. As a standard, the compounds are tested in five concentrations (3.16, 0.316, 0.0316, 0.00316 and 0.000316 μM) on each oocyte starting with the lowest concentration. Background subtracted peak current amplitudes are normalized to the respective GABA control current, converted to % change and depicted +/−S.E.M. as a function of increasing compound concentrations. Plotted datapoints are fitted to the empirical Hill equation using non-linear regression. 95% confidence intervals for maximal efficacy (Bottom) and potency (Log EC50) are derived from this fitting routine.
A general note: In two-electrode clamp one electrode senses voltage and the other passes current.

Series [1] in a line: Metabolic stability in human liver microsomes (Human MST). It counts as in vitro ADME. The note with it: pooled human liver microsomes, pH 7.6; human liver microsomes 1 mg/mL, 1 μM compound, NADPH 1 mM, 37° C.; read-out: Human MST t1/2. As to the method: Assessment of Metabolic Stability in Human Liver Microsomes (Human MST) The metabolic stability of the compounds according to the invention may be investigated as follows: The metabolic degradation of the test compound is assayed at 37° C. with pooled human liver microsomes. The final incubation volume of 100 μL per time point contains TRIS buffer pH 7.6 at room temperature (0.1 M), MgCl2 (5 mM), microsomal protein (1 mg/mL) and the test compound at a final concentration of 1 μM. Following a short pre-incubation period at 37° C., the reactions are initiated by addition of beta-nicotinamide adenine dinucleotide phosphate, reduced form (NADPH, 1 mM), and terminated by transferring an aliquot into solvent after different time points. After centrifugation (10000 g, 5 min), an aliquot of the supernatant is assayed by LCMS/MS for the amount of parent compound. The half-life (t½) is determined by the slope of the semi-logarithmic plot of the concentration-time profile.
In general terms: Microsomes from liver hold many membrane-bound enzymes, among them those of drug oxidation.

pEC50: −log10 of the molar value.

One may read the pEC50 as the negative decadic logarithm of the EC50, by convention in mol/L. Regarding `Cc1nnn(-c2ccc(C(F)F)cc2)c1COc1ccc(-c2ccnc(O)c2)nn1` [Example 2, 4-[6-({1-[4-(difluoromethyl)phenyl]-4-methyl-1H-1,2,3-triazol-5-yl}methoxy)pyridazin-3-yl]pyridin-2-ol], at α5β2γ2 GABAA receptor, the Assay B: GABAA α5β3γ2 Emax vs GABA is -57% and the pEC50 was 8.22. Further, the half-life at 1 μM in series [1] is over 2.17 h.

With `COc1ncc(-c2ccc(OCc3c(C)nnn3-c3ccc(C(F)F)cc3)nn2)cn1` [Example 3], on α5β2γ2 GABAA receptor, the Assay B: GABAA α5β3γ2 Emax vs GABA was -44.3% and the pEC50 is 7.87.

`Cc1nnn(-c2ccc(C(F)F)cc2)c1COc1ccc(-c2cnc(OCC(C)(C)O)nc2)nn1` [Example 4]: on α5β2γ2 GABAA receptor, the Assay B: GABAA α5β3γ2 Emax vs GABA is -41.5% and the pEC50 was 7.64. Further, the half-life at 1 μM in series [1] was over 2.17 h.

In the case of `Cc1nnn(-c2ccc(C(F)F)cc2)c1COc1ccc(-c2cnn(C)c2)nn1` [Example 5], on α5β2γ2 GABAA receptor, the Assay B: GABAA α5β3γ2 Emax vs GABA is -37.7% and the pEC50 was 8.24. Moreover, the half-life at 1 μM in series [1] was over 2.17 h.

Turning to `Cc1ncc(-c2ccc(OCc3c(C)nnn3-c3ccc(C(F)F)cc3)nn2)o1` [Example 6], at α5β2γ2 GABAA receptor, the Assay B: GABAA α5β3γ2 Emax vs GABA is -33.3% and the pEC50 was 8.16. The half-life at 1 μM in series [1] is over 2.17 h.

On to `CCn1cc(-c2ccc(OCc3c(C)nnn3-c3ccc(C(F)F)cc3)nn2)cn1` [Example 7], for which, at α5β2γ2 GABAA receptor, the Assay B: GABAA α5β3γ2 Emax vs GABA was -32% and the pEC50 was 8.22.

For `Cc1nnn(-c2ccc(C(F)F)cc2)c1COc1ccc(-c2cncc(-n3ccnc3)c2)nn1` [Example 8], on α5β2γ2 GABAA receptor, the Assay B: GABAA α5β3γ2 Emax vs GABA was -19.5% and the pEC50 was 7.77. In addition, the half-life at 1 μM in series [1] amounted to 1.22 h.

For the molecule `Cc1nnn(-c2ccc(C(F)F)cc2)c1COc1ccc(-c2cnn(C3CC3)c2)nn1` [Example 9], on α5β2γ2 GABAA receptor, the Assay B: GABAA α5β3γ2 Emax vs GABA is -12% and the pEC50 is 7.32. Also, in series [1], the half-life at 1 μM is over 2.17 h.

With `Cc1cc(-c2ccc(OCc3c(C)nnn3-c3ccc(C(F)F)cc3)nn2)cnn1` [Example 11], at α5β2γ2 GABAA receptor, the Assay B: GABAA α5β3γ2 Emax vs GABA was -17.6% and the pEC50 was 7.99. In addition, in series [1], the half-life at 1 μM was over 2.17 h.

With `Cc1n[nH]c(C)c1-c1ccc(OCc2c(C)nnn2-c2ccc(C(F)F)cc2)nn1` [Example 12, 3-({1-[4-(difluoromethyl)phenyl]-4-methyl-1H-1,2,3-triazol-5-yl}methoxy)-6-(3,5-dimethyl-1H-pyrazol-4-yl)pyridazine], on α5β2γ2 GABAA receptor, the Assay B: GABAA α5β3γ2 Emax vs GABA is -26% and the pEC50 is 7.89. Besides, the half-life at 1 μM in series [1] came out at 0.417 h.

Turning to `CNC(=O)c1cn(-c2ccc(OCc3c(C)nnn3-c3ccc(C(F)F)cc3)nn2)cn1` [Example 14], on α5β2γ2 GABAA receptor, the Assay B: GABAA α5β3γ2 Emax vs GABA is -47.3% and the pEC50 is 8.64. For the same molecule, the half-life at 1 μM in series [1] was over 2.17 h.

Turning to `Cc1nnn(-c2ccc(C(F)F)cc2)c1COc1ccc(-n2cnc(C(F)F)c2)nn1` [Example 15], on α5β2γ2 GABAA receptor, the Assay B: GABAA α5β3γ2 Emax vs GABA was -42.5% and the pEC50 is 8.85. Further, the half-life at 1 μM in series [1] is over 2.17 h.

For `Cc1nnn(-c2ccc(C(F)F)cc2)c1COc1ccc(-n2cnc(C=O)c2)nn1` [Example 17], at α5β2γ2 GABAA receptor, the Assay B: GABAA α5β3γ2 Emax vs GABA is -23% and the pEC50 was 8.77. For the same molecule, in series [1], the half-life at 1 μM turned out to be 0.167 h.

For the molecule `Cc1nnn(-c2ccc(C(F)F)cc2)c1COc1ccc(-n2cnc(Cl)c2)nn1` [Example 18], on α5β2γ2 GABAA receptor, the Assay B: GABAA α5β3γ2 Emax vs GABA was -27.5% and the pEC50 is 8.43. In addition, the half-life at 1 μM in series [1] was over 2.17 h.

With `Cc1nnn(-c2ccc(C(F)F)cc2)c1COc1ccc(-n2cnc(S(C)(=O)=O)c2)nn1` [Example 19], at α5β2γ2 GABAA receptor, the Assay B: GABAA α5β3γ2 Emax vs GABA was -25% and the pEC50 is 8.11. Further, in series [1], the half-life at 1 μM is over 2.17 h.

On to `Cc1nnn(-c2ccc(C(F)F)cc2)c1COc1ccc(-n2ccc(C#N)n2)nn1` [Example 20], for which, on α5β2γ2 GABAA receptor, the Assay B: GABAA α5β3γ2 Emax vs GABA is -19.7% and the pEC50 is 8.36.

For the molecule `Cc1nnn(-c2ccc(C(F)F)cc2)c1COc1ccc(-n2ccc(C(N)=O)n2)nn1` [Example 21], the Assay B: GABAA α5β3γ2 Emax vs GABA on α5β2γ2 GABAA receptor was determined as 2%. In addition, in series [1], the half-life at 1 μM amounted to 0.617 h.

In the case of `Cc1nnn(-c2ccc(C(F)F)cc2)c1COc1ccc(-c2cncnc2)nn1` [Example 22], at α5β2γ2 GABAA receptor, the Assay B: GABAA α5β3γ2 Emax vs GABA was -17.3% and the pEC50 was 9.30. In addition, the half-life at 1 μM in series [1] is over 2.17 h.

`Cc1nnn(-c2ccc(C(F)F)cc2)c1COc1ccc(-n2ccc(C(F)(F)F)n2)nn1` [Example 24]: on α5β2γ2 GABAA receptor, the Assay B: GABAA α5β3γ2 Emax vs GABA is -9% and the pEC50 was 7.11. Moreover, the half-life at 1 μM in series [1] was 0.517 h.

`Cc1nnn(-c2ccc(C(F)F)cc2)c1COc1ccc(-n2cc(C(F)(F)F)cn2)nn1` [Example 25]: on α5β2γ2 GABAA receptor, the Assay B: GABAA α5β3γ2 Emax vs GABA was -0.7%. Further, the half-life at 1 μM in series [1] was over 2.17 h.

With `Cc1nnn(-c2ccc(C(F)F)cc2)c1COc1ccc(-n2cc3c(n2)CCNC3=O)nn1` [Example 26], at α5β2γ2 GABAA receptor, the Assay B: GABAA α5β3γ2 Emax vs GABA is -27% and the pEC50 is 8.47. Further, in series [1], the half-life at 1 μM was over 2.17 h.

For `Cc1nnn(-c2ccc(C(F)F)cc2)c1COc1ccc(-n2cnc(C(N)=O)c2)nn1` [Example 27, 1-[6-({1-[4-(difluoromethyl)phenyl]-4-methyl-1H-1,2,3-triazol-5-yl}methoxy)pyridazin-3-yl]-1H-imidazole-4-carboxamide], on α5β2γ2 GABAA receptor, the Assay B: GABAA α5β3γ2 Emax vs GABA is -35.2% and the pEC50 is 9.40. Moreover, the half-life at 1 μM in series [1] is over 2.17 h.

Turning to `COC(=O)c1cn(-c2ccc(OCc3c(C)nnn3-c3ccc(C(F)F)cc3)nn2)cn1` [Example 29], on α5β2γ2 GABAA receptor, the Assay B: GABAA α5β3γ2 Emax vs GABA is -29% and the pEC50 is 8.74. In series [1], the half-life at 1 μM is 0.433 h.

On to `Cc1nnn(-c2ccc(C(F)F)cc2)c1COc1ccc(-n2cc(C#N)cn2)nn1` [Example 31], for which, on α5β2γ2 GABAA receptor, the Assay B: GABAA α5β3γ2 Emax vs GABA is -23% and the pEC50 was 8.13. Moreover, the half-life at 1 μM in series [1] is over 2.17 h.

As to `CC(=O)c1cn(-c2ccc(OCc3c(C)nnn3-c3ccc(C(F)F)cc3)nn2)cn1` [Example 32], at α5β2γ2 GABAA receptor, the Assay B: GABAA α5β3γ2 Emax vs GABA is -22.8% and the pEC50 was 8.24. Besides, the half-life at 1 μM in series [1] is over 2.17 h.

As to `Cc1ncn(-c2ccc(OCc3c(C)nnn3-c3ccc(C(F)F)cc3)nn2)n1` [Example 33], on α5β2γ2 GABAA receptor, the Assay B: GABAA α5β3γ2 Emax vs GABA was -22% and the pEC50 was 7.95. Further, the half-life at 1 μM in series [1] was over 2.17 h.

Consider `Cc1nnn(-c2ccc(C(F)F)cc2)c1COc1ccc(-n2cnc(CN)c2)nn1` [Example 35, {1-[6-({1-[4-(difluoromethyl)phenyl]-4-methyl-1H-1,2,3-triazol-5-yl}methoxy)pyridazin-3-yl]-1H-imidazol-4-yl}methanamine], for which, on α5β2γ2 GABAA receptor, the Assay B: GABAA α5β3γ2 Emax vs GABA was -21.7% and the pEC50 was 8.68. Besides, the half-life at 1 μM in series [1] was over 2.17 h.

Take `Cc1nnn(-c2ccc(C(F)F)cc2)c1COc1ccc(-n2cnc(C[N+](C)(C)C)c2)nn1.O=C([O-])C(F)(F)F` [Example 36, ({1-[6-({1-[4-(difluoromethyl)phenyl]-4-methyl-1H-1,2,3-triazol-5-yl}methoxy)pyridazin-3-yl]-1H-imidazol-4-yl}methyl)trimethylazanium trifluoroacetate]: on α5β2γ2 GABAA receptor, the Assay B: GABAA α5β3γ2 Emax vs GABA was -31.5% and the pEC50 is 8.21. For the same molecule, the half-life at 1 μM in series [1] was over 2.17 h.
